Laboratory results reported in patent US6479044B1, “Antibacterial solution” (Colgate-Palmolive Company, priority 2001, dated 2002).

Assay: Resistance to rinse by colorimetry (Indigotine dye revelation, chromameter)
Format: physicochemical
Conditions: 50 μl on ceramic tile, rinsed 2×10 ml deionized water, Indigotine dye 0.033%
Experimental: Methodology: 50 μl of each solution in deionized water is deposited on a ceramic tile 2.5 cm×2.5 cm. After drying at room temperature, the treated tiles are rinsed with 2×10 ml deionized water. The revelation is then performed with 200 μl lndigotine dye ex. Wackherr (Cl 73015) at 0.033% in deionized water (3 minutes contact). After removing the excess of dye with 10 ml deionized water and drying of the surface, the coloration intensity is measured with a chromameter (Minolta CR200™). The higher the ΔE, the higher the difference of coloration versus the reference tile (no treatment, no contact with the dye). The coloration is the signal of the persistence of the PHMB on the surface after rinsing.

ΔE (coloration versus reference tile): 0.5
SMILES: CCCCCCCCCCCCOS(=O)(=O)[O-].[Na+] [SLS 0.1%, sodium lauryl sulfate]
